The text below walks through data of patent US20070155806A1 (The University of Tokyo, priority 2005, published 2007).

Common to all, as to assay type: biochemical
In assay [1] the target is T1, luciferase (firefly) (Photinus pyralis, UniProt P08659). In words: Luminescence characteristics with firefly luciferase (Example 3). The conditions noted are these: for relative intensity: calculated on the basis of the intensity obtained for aminoluciferin; for λmax(nm): luminescence peak, HEPES pH 7.7, ATP, Mg, CoA; for λmax(nm) / initial intensity: 12 μmol/L substrate, 20 μg/mL luciferase; for initial intensity: luminescence, HEPES pH 7.7; for peak luminescence wavelength shift to longer wavelength side compared with luciferin: versus luciferin. As to the method: The measurement was performed by using Fluorescence Spectrophotometer F-4500 (Hitachi).

For assay [2], the target named is T1, luciferase (firefly). In words: Measurement of luminescence after reaction with luciferase (Example 5, FIG. 2). The note with it: 12 μmol/L substrate, 40 μg/mL luciferase. Here is the method:
Luminescence spectra of Compounds 19 and 20 were measured.

The target in assay [3] is T1, luciferase (firefly). In words: HPLC analysis of luciferase reaction product with or without ATP (Example 6, FIG. 3). The note with it: system added with ATP vs without ATP. As to the method: For 6-(4-aminophenethyl)-aminoluciferin (Compound 21), the enzymatic reaction was also performed in a system without ATP (all the other conditions were the same as Example 5), along with the aforementioned enzymatic reaction in Example 5. After these two enzymatic reactions, each enzymatic reaction mixture was collected and filtered by using a centrifugal separator to remove the enzyme. The solvent was evaporated by lyophilization to obtain a residue after the enzymatic reaction. A small amount of the residue was dissolved in purified water and methanol, then analyzed by HPLC. The results are shown in FIG. 3. • Analysis conditions • Elution solvent: A=H2O/0.1% trifluoroacetic acid, B=80% acetonitrile/20% • water/0.1% trifluoroacetic acid, A/B=80/20 to 20/80 (20 minutes) • Detection: UV-vis (400 nm) • Column: ODS-3, 4.6×250 mm • Flow rate: 1 mL/min

T1 sequence (P08659 whole entry, species assumed): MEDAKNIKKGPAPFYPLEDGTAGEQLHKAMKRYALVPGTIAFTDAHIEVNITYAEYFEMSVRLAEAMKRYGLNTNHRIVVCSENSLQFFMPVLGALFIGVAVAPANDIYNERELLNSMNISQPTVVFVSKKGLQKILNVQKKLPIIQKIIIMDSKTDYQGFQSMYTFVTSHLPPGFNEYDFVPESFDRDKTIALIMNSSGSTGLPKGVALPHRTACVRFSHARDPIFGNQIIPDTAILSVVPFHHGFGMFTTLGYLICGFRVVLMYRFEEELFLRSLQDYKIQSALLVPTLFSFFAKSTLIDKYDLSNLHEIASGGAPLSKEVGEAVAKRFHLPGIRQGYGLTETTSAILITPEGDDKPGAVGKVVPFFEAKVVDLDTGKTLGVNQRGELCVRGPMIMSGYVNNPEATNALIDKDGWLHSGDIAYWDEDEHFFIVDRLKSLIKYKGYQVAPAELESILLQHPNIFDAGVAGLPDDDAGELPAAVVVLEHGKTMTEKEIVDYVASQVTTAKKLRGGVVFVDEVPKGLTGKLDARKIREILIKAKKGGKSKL

Consider `CNc1ccc2nc(C3=NC(C(=O)O)CS3)sc2c1` (stereo not shown) [Compound 10, N-methylaminoluciferin], for which, in assay [1], the relative intensity was 66.5, the “λmax(nm)” value is reported as 624 nm, the initial intensity is 1360 and the “peak luminescence wavelength shift to longer wavelength side compared with luciferin” value (shortened to “peak luminescence wavelength shift”) is on record as 49 nm.

Consider `CN(C)c1ccc2nc(C3=NC(C(=O)O)CS3)sc2c1` (stereo not shown) [Compound 11, N,N-dimethylaminoluciferin], for which, in assay [1], the relative intensity was 44.1, the “λmax(nm)” value came to 641 nm, the initial intensity worked out at 901 and the “peak luminescence wavelength shift” value is given as 66 nm.

Consider `O=C(O)C1CSC(c2nc3ccc(NCc4ccccc4)cc3s2)=N1` (stereo not shown) [Compound 12, N-benzylaminoluciferin], for which, in assay [1], the relative intensity was 5.2, the “λmax(nm)” value is 623 nm, the initial intensity was determined as 106 and the “peak luminescence wavelength shift” value came out at 48 nm.

For the compound `O=C(O)C1CSC(c2nc3ccc(NCCc4ccccc4)cc3s2)=N1` (stereo not shown) [Compound 13, N-phenethylaminoaminoluciferin], in assay [1], the relative intensity is given as 8.6, the “λmax(nm)” value was 611 nm and the “peak luminescence wavelength shift” value is 36 nm. This compound also gave an initial intensity in assay [1] (listed as N-phenethylaminoluciferin) of 175.

For `O=C(O)C1CSC(c2nc3ccc(NCCCc4ccccc4)cc3s2)=N1` (stereo not shown) [Compound 14, N-phenylpropylaminoluciferin], in assay [1], the relative intensity is 48.0, the “λmax(nm)” value was determined as 611 nm, the initial intensity was 980 and the “peak luminescence wavelength shift” value worked out at 36 nm.

As to `O=C(Nc1ccc(CCNc2ccc3nc(C4=NC(C(=O)O)CS4)sc3c2)cc1)OCc1ccccc1` (stereo not shown) [Compound 19, 6-(4′-benzyloxycarbonylamidophenethyl)-aminoluciferin], the luminescent property entry in assay [2] was “luminescence was observed”. Further, in assay [2] (HEPES pH 7.7), the luminescence peak entry is on record as “about 610 nm”.

In the case of `Nc1ccc(CCNc2ccc3nc(C4=N[C@@H](C(=O)O)CS4)sc3c2)cc1` [Compound 21, 6-(4′-aminophenethyl)-aminoluciferin], in assay [2], the luminescent property entry is given as “completely lost the luminescent property”. In addition, the “reaction as luciferase substrate (elution peak of compound after enzymatic reaction)” value in assay [3] is recorded as “reacted as a luciferase substrate”.

Turning to `Nc1ccc2nc(C3=N[C@@H](C(=O)O)CS3)sc2c1` [aminoluciferin, reference compound], in assay [1], the relative intensity is given as 100.0, the “λmax(nm)” value is on record as 609 nm, the initial intensity was determined as 2044 and the “peak luminescence wavelength shift” value turned out to be 34 nm.
